Experimental data taken from patent publication US12349706B2, “Compositions and methods related to excipients and cannabinoid formulations” (Natural Extraction Systems, LLC, priority 2020, dated 2025).

Legend:
Assay type in all cases: in vivo
[1] = system: tumor necrosis factor (“TNF”) signaling; assay: Plasma TNF after zymosan injection, measured by HPLC; conditions: Sabra mice, zymosan in left hind paw, 300 milligrams formulation (cannabinoid in propylene glycol, xylitol solid phase) in 15 milliliters water, oral gavage
Procedure: (§1) The activity of formulations set forth in this disclosure is assayed in Sabra mice. 300 milligrams of a formulation is combined with 15 milliliters of water and administered by oral gavage. Each formulation comprises a liquid phase that contains propylene glycol and a solid phase that contains xylitol. The liquid phase contains a cannabinoid selected from CBD, THC, Δ8-THC, CBG, CBDV, THCV, Δ8-THCV, CBGV, CBC, CBN, tetrahydrocannabiphorol, perrottetinene, nabilone, parahexyl, HUM-217, and HU-331, which is dissolved in the propylene glycol, and controls lack any cannabinoid.
(§2) Zymosan is injected into the left hind paws of each mouse to induce pain, inflammation, and tumor necrosis factor (“TNF”) signaling. Inflammatory paw swelling is measured with a caliper. Pain is measured with a Von Frey hair aesthesiometer. Plasma TNF is measured […].

Sabra mice [2] = assay: Zymosan-induced inflammatory paw swelling, measured with a caliper; conditions: zymosan in left hind paw, paw swelling by caliper, 300 milligrams formulation (cannabinoid in propylene glycol, xylitol solid phase) in 15 milliliters water, oral gavage
Procedure: as §1, §2

Sabra mice [3] = assay: Zymosan-induced paw pain, Von Frey hair aesthesiometer; conditions: zymosan in left hind paw, 300 milligrams formulation (cannabinoid in propylene glycol, xylitol solid phase) in 15 milliliters water, oral gavage
Procedure: as §1, §2

Row | SMILES | reduction in TNF signaling relative to controls [1] | reduction in inflammation relative to controls (Sabra mice [2]) | reduction in pain relative to controls (Sabra mice [3])
1 | CCCCCc1cc(O)c2c(c1)OC(C)(CCC=C(C)C)C=C2 (stereo not drawn) [CBC] | no detectable effect | no detectable effect | no detectable effect
2 | C=C(C)[C@@H]1CCC(C)=C[C@H]1c1c(O)cc(CCC)cc1O [CBDV] | robust reduction | robust reduction | robust reduction
3 | C=C(C)[C@@H]1CCC(C)=C[C@H]1c1c(O)cc(CCCCC)cc1O [CBD] | robust reduction | robust reduction | robust reduction
4 | CCCCCc1cc(O)c(C/C=C(\C)CCC=C(C)C)c(O)c1 [CBG] | modest reduction | modest reduction | modest reduction
5 | CCCCCc1cc(O)c2c(c1)OC(C)(C)c1ccc(C)cc1-2 [CBN] | modest reduction | modest reduction | modest reduction
6 | C=C(C)[C@@H]1CCC(C)=C[C@H]1C1=C(O)C(=O)C(CCCCC)=CC1=O [HU-331] | robust reduction | robust reduction | robust reduction
7 | CCCc1cc(O)c2c(c1)OC(C)(C)[C@@H]1CCC(C)=C[C@@H]21 [THCV] | modest reduction | modest reduction | modest reduction
8 | CCCCCc1cc(O)c2c(c1)OC(C)(C)[C@@H]1CCC(C)=C[C@@H]21 [THC] | modest reduction | modest reduction | modest reduction
9 | CCCCCCC(C)(C)c1cc(O)c2c(c1)OC(C)(C)C1CCC(=O)CC21 (stereo not drawn) [nabilone] | modest reduction | modest reduction | modest reduction
10 | CCCCCCc1cc(O)c2c(c1)OC(C)(C)C1=C2CC(C)CC1 (stereo not drawn) [parahexyl] | modest reduction | modest reduction | modest reduction
11 | CC1=C[C@H]2c3c(O)cc(CCc4ccccc4)cc3OC(C)(C)[C@H]2CC1 [perrottetinene] | modest reduction | modest reduction | modest reduction
12 | CCCCCCCc1cc(O)c2c(c1)OC(C)(C)[C@@H]1CCC(C)=C[C@@H]21 [tetrahydrocannabiphorol] | modest reduction | modest reduction | modest reduction
13 | CCCc1cc(O)c2c(c1)OC(C)(C)[C@@H]1CC=C(C)C[C@@H]21 [Δ8-THCV] | modest reduction | modest reduction | modest reduction
14 | CCCCCc1cc(O)c2c(c1)OC(C)(C)[C@@H]1CC=C(C)C[C@@H]21 [Δ8-THC] | modest reduction | modest reduction | modest reduction
